Test results published in patent US9446039B2, “Aminoheteroaryl compounds as MTH1 inhibitors” (CEMM—FORSCHUNGSZENTRUM FÜR MOLEKULARE MEDIZIN GMBH, priority 2012, dated 2016).
Entries after “also recorded” stand apart in the source; their conditions may differ.

Tests used:
SW480 cells [1] = test: Colony formation assay using SW480 cells; assay type: cell-based, human; details: K-Ras-mutated SW480 colon carcinoma
Description: Colony Formation Assay Using SW480 Cells. One day before treatment, 10^4 cells were seeded per well in 6-well plates and incubated for 24 h. The next day DMSO (equal to highest amount of compound dilution, maximum 0.2%) or compounds in increasing concentrations were added and cells incubated at 37° C., 5% CO2, for 7-10 days. After washing with PBS (Gibco), cells were fixed with ice-cold methanol, stained with crystal violet solution (0.5% in 25% methanol) and left to dry overnight. For quantification of results, UV absorbance of crystal violet was determined at 595 nm after solubilisation by 70% ethanol. Data were analysed using non-linear regression analysis utilizing the GraphPad Prism software.

[2] = test system: PANC1 pancreatic cancer cells; test: Colony formation assay using PANC1 cells; assay type: cell-based, human; details: K-Ras mutated PANC1
BJ skin fibroblasts = test: Colony formation assay with untransformed BJ skin fibroblasts; assay type: cell-based, human; details: 10 days incubation
[3] = test system: isogenic BJ fibroblast cell lines; test: Colony formation assays in isogenic BJ fibroblast cell lines (anti-cancer specificity); assay type: cell-based; details: hTERT+SV40T, hTERT+SV40T+KRAS V12
Description: FIG. 28: Anti-cancer specificity. […] As indicated, the investigated cell line panel comprised non-transformed (“wildtype”) cells, cells immortalized with telomerase (hTERT), cells transformed with hTERT and SV40 Large T antigen (SV40T), and cells transformed with hTERT, SV40T, and the KRAS mutant V12.
The investigated cell line panel comprised non-transformed (“wildtype”) cells, cells immortalized with telomerase (hTERT), cells transformed with hTERT and SV40 Large T antigen (SV40T), and cells transformed with hTERT, SV40T, and the KRAS mutant V12 (FIG. 28).

SW480 cells [4] = test: Alkaline comet assay (DNA single strand breaks) in SW480 cells; assay type: cell-based, human; details: 6 days treatment, alkali conditions
Description: (§1) Comet Assay. Cells were treated with compounds for 6 days, upon which DNA single-strand breaks were assayed using the comet assay under alkali conditions. […] Cells were washed twice with PBS, harvested using a rubber scraper, pelleted by centrifugation, resuspended in PBS and mixed with 1% low-gelling-temperature agarose (Sigma type VII) that was maintained at 37° C. The mixture of cells and agarose was layered onto frosted glass slides pre-coated with 0.5% agarose and slides were placed on ice to gel. Slides were maintained in the dark for all subsequent steps. […] After electrophoresis for 25 minutes at 25 volts, slides were placed at 4° C. over-night, in the dark. The following day, slides were neutralized with 0.4 M Tris-HCl pH 7.0 for 1 hour and stained with SYBR Gold (Invitrogen, diluted 1:10,000 in distilled water) for 30 minutes. Comet tail moments (defined as the average distance migrated by the DNA multiplied by the fraction of DNA in the comet tail) were scored using the CellProfiler cell image analysis software.

SW480 cells [5] = test: Indirect immunofluorescence for 53BP1 foci in SW480 cells; assay type: cell-based, human; details: 6 days treatment
Description: Indirect Immunofluorescence. Cells were treated with compounds for 6 days, following which they were adhered to glass coverslips, washed with PBS and then fixed with 3% paraformaldehyde in PBS for 20 minutes. Fixed cells were rinsed with PBS and permebealised with 0.5% Triton-X-100 for 5 minutes. PBS washed slides were incubated for 1 hour with 10% FCS and 0.1% Triton-X-100 in PBS following which cells were stained with an anti-53BP1 monoclonal antibody (H-300, Santa Cruz, diluted 1:600), in 10% FCS and 0.1% Triton-X-100 in PBS. […] After a PBS wash, DNA was counterstained with DAPI (Sigma-Aldrich) for 10 minutes and the coverslips were mounted in Fluorescent Mounting Medium (Dako). Images were analysed with a Zeiss fluorescent microscope at 63 times magnification with supporting software.

SW480 cells [6] = test: ATM phosphorylation in SW480 cells; assay type: cell-based, human
SW480 cells [7] = test: SW480 mouse xenograft study; assay type: in vivo, SCID mice; details: 25 mg/kg s.c. once daily, 35 days
Description: (§2) Xenograft Study. SCID mice (female, 5-6 weeks, Scanbur, Germany) were s.c. injected with 1×10^6 SW480 cells together with a matrix gel (1:1) in the sacral area. Treatment was initiated one day after cell inoculation. Vehicle or MTH1 inhibitor was administered subcutaneously once daily at 25 mg/kg for 35 days. MTH1 inhibitor was diluted in 1% DMSO, 10% ethanol, 10% cremaphore, 10% Tween 80, 69% PBS. Tumour size was measured twice weekly and body weight once weekly. At termination, a gross postmortem inspection was performed; blood was collected for haematological parameters and ASAT, ALAT, creatinine measurements and tumours collected in paraformaldehyde (4%) and later paraffin inbedded for immunohistology analysis. All experiments involving animals followed protocols approved by Stockholms Norra djurfOrsoksetiska namnd (laboratory animal ethical committee Stockholm). All animals were acclimatised for one week, and had free access to water and food during the experiment. Animals were under a 12-hour lightcycle, and temperature and humidity according to laboratory animal guidelines and regulations.

[8] = Tolerability in the xenograft study: hematology, liver/heart/kidney parameters, body weight; assay type: in vivo, SCID mice
Description: as §2, with “MTH1 inhibitor was diluted in 1% DMSO, 10% ethanol, 10% cremaphore, 10% Tween 80, 69% PBS.” left out

[9] = test system: SW480 colon carcinoma cells lysate proteins; assay type: binding, human; details: immobilized aminopropyl derivative of (S)-crizotinib
MCF-7 = details: 10 μM, versus DMSO-treated cells
MDA-MB-231 = details: 10 μM, versus DMSO-treated cells; KRAS G13D
BJ fibroblasts = test: 8-oxo-guanine staining in BJ cells; details: fixed 72 h later
[10] = test system: HCT116 colon carcinoma cells; test: HCT116 isogenic cell line system (p53/p21/MLH1 status); details: HCT116 isogenic lines
[11] = test system: SH-SY5Y, NCI-H3122 and NCI-H1648 cell lysates; test: Chemical proteomics competition pull-downs (iTRAQ) in SH-SY5Y, NCI-H3122 and NCI-H1648 lysates; assay type: binding, human; details: competition with 20 μM unmodified crizotinib
[12] = test system: Ewing's sarcoma family of tumours (ESFT) cells
ALK = test: Drug pull-down with immobilized compounds from SH-SY5Y cells, Western blot for ALK; assay type: binding, human; details: SH-SY5Y lysate
Description: Immobilization and Affinity Purification. […] Briefly, 25 nmol of compound was immobilised on 50 μL NHS-activated Sepharose 4 Fast Flow beads (GE Healthcare Bio-Sciences AB, Uppsala, Sweden).

MTH1 [13] = target: T1, MTH1 (Homo sapiens, UniProt P36639); test: MTH1 catalytic assay (luminescence-based, PPi from 8-oxo-dGTP hydrolysis, PPiLight); assay type: biochemical; parameters: His-tag (TEV site) (cleaved yes); made in house; host or cells: E. coli BL-21(DE3), vector pETM-11
MRC-5 lung fibroblasts = test: Comet assay in MRC-5 lung fibroblasts; assay type: cell-based
Description: as §1

MTH1 [14] = target: T1, MTH1; test: Isothermal titration calorimetry (direct binding assay); parameters: His-tag (TEV site) (cleaved yes); made in house; host or cells: E. coli BL21 DE3; details: 15° C., 50 mM Tris-HCl pH 7.8, 150 mM NaCl
[15] = test system: SW480 colon carcinoma cells; test: siRNA experiments (MTH1 gene silencing, colony staining); assay type: cell-based, human
Description: siRNA Experiments. Both a commercial anti-MTH1 siRNA set (SMARTpool ON-TARGETplus, Dharmacon) as well as a custom-synthesised siRNA (Sigma-Aldrich) were obtained. […]. For transfections, cells were seeded in 24-well plates at approximately 30% confluency 24 h prior to siRNA treatment. The next day, medium was aspirated and transfections were performed with […]in (Polyplus) according to manufacturer's instructions using a final siRNA concentration of 10 nM. Cells were incubated for 2-3 days, washed, detached with trypsin and replated in 6-well plates. After 7-10 days, medium was aspirated, cells were washed with PBS, fixed with ice-cold methanol, stained with crystal violet solution (0.5% in 25% methanol) and left to dry overnight. […]. Data were analysed using the GraphPad Prism software (t test, P<0.05).

[16] = 25 mg/kg s.c. 35 days, EDTA plasma, mean ± SD
[17] = 25 mg/kg s.c. 35 days, mean ± SD
[18] = error of nonlinear least squares fit

Compound: C[C@H](Oc1cc(-c2cnn(C3CCNCC3)c2)cnc1N)c1c(Cl)ccc(F)c1Cl [(S)-enantiomer of crizotinib, (S)-3-[1-(2,6-dichloro-3-fluoro-phenyl)-ethoxy]-5-(1-piperidin-4-yl-1H-pyrazol-4-yl)-pyridin-2-ylamine]
- colony formation / growth of SW480 cells (SW480 cells [1]): efficiently inhibited colony formation; also recorded: considerably more effective
- colony formation of PANC1 cells [2]: efficiently inhibited colony formation
- toxicity on non-transformed BJ skin fibroblasts (colony formation) (BJ skin fibroblasts): does not exhibit any increased unspecific cytotoxicity
- toxicity to transformed versus wildtype / hTERT-immortalized BJ cells [3]: more toxic to transformed cells than to wildtype cells
- tail moment in the comet assay (SW480 cells [4]): yielded a significant tail moment
- number of 53BP1 foci (SW480 cells [5]): increase the number of 53BP1 foci
- ATM phosphorylation (SW480 cells [6]): increase of ATM phosphorylation
- reduction in tumour volume (SW480 cells [7]): more than 50%
- P-ALAT [8, 16]: 0.26 ± 0.07 mCat/l
- p-ASAT [8, 16]: 1.10 ± 0.32 mCat/l
- p-Creatinine [8, 16]: 18.6 ± 4.24 µM
- HBG [8, 17]: 134 ± 6.25 g/L
- Lymphocytes [8, 17]: 0.23 ± 0.06 10^9/l
- MCH [8, 17]: 14.07 ± 0.30 pg
- MCHC [8, 17]: 327 ± 4.90 g/L
- MCV [8, 17]: 43.02 ± 1.07 fL
- Monocytes [8, 17]: 0.16 ± 0.11 10^9/l
- Neutrophils [8, 17]: 1.50 ± 0.51 10^9/l
- RBC [8, 17]: 9.51 ± 0.37 10^12/l
- Thrombocytes [8, 17]: 828 ± 160 10^9/l
- WBC [8, 17]: 1.90 ± 0.64 10^9/l
- tolerability ([8]; 25 mg/kg s.c. once daily, 35 days): well-tolerated
- change in haematological parameters ([8]; 25 mg/kg s.c., 35 days, versus vehicle): no significant change
- main cellular target in SW480 cells [9]: MTH1 (gene name NUDT1) is the main target
- growth of MCF-7 in colony formation assay (MCF-7): significantly decreased the growth
- growth of MDA-MB-231 in colony formation assay (MDA-MB-231): significantly decreased the growth
- staining of anti-8-oxo-guanine antibody (BJ fibroblasts): increased staining
- effect of loss of p21 on sensitivity of HCT116 cells [10]: seems to increase the sensitivity
- effect of p53 status and functional MLH1 on activity in HCT116 cells [10]: do not affect the activity

Compound: C[C@@H](Oc1cc(-c2cnn(C3CCNCC3)c2)cnc1N)c1c(Cl)ccc(F)c1Cl [(R)-crizotinib, 3-[1-(2,6-dichloro-3-fluoro-phenyl)-ethoxy]-5-(1-piperidin-4-yl-1H-pyrazol-4-yl)-pyridin-2-ylamine]
- toxicity on non-transformed BJ skin fibroblasts (colony formation) (BJ skin fibroblasts; listed as (R)-enantiomer): significantly impairs the growth; also recorded: higher toxicity
- targets identified by chemical proteomics [11]: common target of crizotinib in all samples
- growth inhibition of ESFT cells [12]: inhibited the growth of these cells at low nanomolar concentrations
- staining of anti-8-oxo-guanine antibody (BJ fibroblasts): not

Compound: CC(Oc1cc(-c2cnn(C3CCN(CCCN)CC3)c2)cnc1N)c1c(Cl)ccc(F)c1Cl (centres unmarked) [CeMM-146]
- enrichment / binding of ALK isoforms by immobilized compound (ALK): enriches both ALK isoforms to highest extent
- inhibition of MTH1 catalytic activity (in words) (MTH1 [13]; 8-oxo-dGTP hydrolysis): nanomolar inhibition

Compound: CC(Oc1cc(-c2cnn(C3CCNCC3)c2)cnc1N)c1c(Cl)ccc(F)c1Cl (racemic) [racemic crizotinib, 3-[1-(2,6-dichloro-3-fluoro-phenyl)-ethoxy]-5-(1-piperidin-4-yl-1H-pyrazol-4-yl)-pyridin-2-ylamine]
- DNA damage in comet assay (MRC-5 lung fibroblasts): induced DNA damage

Compound: COc1ccc2nc3c(c(C)nn3C)c(NCCOCCO)c2c1 [SCH51344]
- tail moment in the comet assay (SW480 cells [4]): yielded a significant tail moment
- number of 53BP1 foci (SW480 cells [5]): increase the number of 53BP1 foci
- TΔS (MTH1 [14]): 3170 cal/mol
- Kd (MTH1 [14]; [18]): 49 ± 5.6 nM
- ΔH (MTH1 [14]; [18]): -6479 ± 45 cal/mol

Compound: anti-MTH1 siRNA: siRNA against MTH1; custom sequence CGACGACAGCUACUGGUUU (SEQ ID No. 48) or SMARTpool set (listed as RNA, chemistry not given here)
- viability of SW480 cells after MTH1 gene silencing [15]: impairs viability

Compound: Cn1cc(-c2ccc3nnc(C(F)(F)c4ccc5ncccc5c4)n3n2)cn1 [JNJ-38877605, reference compound]
- colony formation / growth of SW480 cells (SW480 cells [1]): does not suppress growth

Compound: COc1cc(N2CCC(N3CCN(C)CC3)CC2)ccc1Nc1ncc(Cl)c(Nc2ccccc2S(=O)(=O)C(C)C)n1 [NVP-TAE684, reference compound]
- inhibition of MTH1 catalytic activity at 100 μM (MTH1 [13]; concentrations of 100 μM, data not shown): did not exhibit any significant inhibition
